Type in all cases: cell-based
The subject of test [1] is NCI-H526 (H526) cell line. Briefly: Cell viability assay for NCI-H526 cell line. As to conditions: Homo sapiens, NCI-H526, 120 h, 5 days, EZ-Cytox, 0.46-3000 nM. The text has this: (§1) The NCI-H69 (hereafter H69) and NCI-H526 (hereafter H526) cell lines were purchased from Korea Cell Line Bank (KCLB, Seoul, Korea). For cell culture, RPMI 1640 (Gibco, Cat. No. 22400-089; Lot. No. 2537146), FBS (Gibco, Cat. No. 16000-044; Lot. No. 2511328P), Penicillin/Streptomycin (PS) (Gibco, Cat. No. 15140-122; Lot. No. 2441887), 75T cell culture flask (SPL, Cat. No. 71075), 175T cell culture flask (SPL, Cat. No. 71175), 96-well cell culture plate (SPL, Cat. No. 30096), PBS pH 7.4 (Gibco, Cat. No. 10010-023; Lot. No. 2509235), TrypLE™ Express (Gibco, Cat. No. 12605-010; Lot. No. 2323417), Cell Counter (Hematocytometer)(As one, Cat. No. 4-458-01), and 0.4% Trypan Blue Solution (DYNEBIO, Cat. No. CBT3710; Lot. No. 20221111) were used.
(§2) The compounds of Examples were completely dissolved in DMSO (Sigma-Aldrich Cat. No. D2438, Lot. No. RNBL7287) and used in the experiment. 3×10^4 cells were seeded for each well of a 96-well plate (SPL), and the cells were cultured in total volume of 150 μl. Each compound was diluted 3-folds from the highest concentration of 3000 nM to the lowest concentration of 0.46 nM. After treating the compound to each well to make the total volume of 200 μl, it was cultured in a CO2 incubator (Thermo Fisher Science, Cat. No. 4111) for 5 days. Then, after treating EZ-Cytox (DOGEN, Cat.NO. EZ-3000, Lot. No. DLS2308) 20 μl in each well, it was cultured in CO2 incubator for 4 hours. The absorbance of the completely cultured sample was measured by setting the wavelength of a plate reader (BMG Labtech, CLARIOstar Plus) to […], and was measured after shaking for 3 minutes in a plate reader before measurement.
(§3) (A: IC50 is less than 20 nM, B: IC50 is 50 nM or less, C: IC50 is 100 nM or less)

The test system of the next test is NCI-H69 (H69) cell line. The experiment in a line: Cell viability assay for NCI-H69 cell line. The settings on record: Homo sapiens, NCI-H69, 120 h, 5 days, EZ-Cytox, 0.46-3000 nM.
Excerpt: as §1, §2, §3

A further test addresses T1, PLK1 (Homo sapiens, UniProt P53350).
T1 construct: endogenous in cells; host or cells: HeLa LgBit (PLK1-HiBit KI): HeLa cells stably expressing LgBit, with CRISPR/Cas9 knock-in of HiBit at the endogenous PLK1 locus
Briefly: Luciferase assay for PLK1 in HeLa LgBit (PLK1-HiBit KI) cell line. As to conditions: released after thymidine block, compound 300 nM, luminescence after 9 hours. Here is the method:
A HeLa cell line in which the LgBit vector was transfected and expressed stably was prepared. Then, after constructing gRNA and donor to express the HiBit amino acid sequence behind the C-terminal of the PLK1 gene, which was inherent in the cell, it was inserted into the cell together with a vector capable of expressing CRISPR/Cas9. Only the cells in which the insertion was completed and knock-in had progressed were selected, sub-cultured and used.
The compounds of Examples were completely dissolved in DMSO (Sigma-Aldrich Cat. No. D2438, Lot. No. RNBL5438) and used in the experiment.
In the case of HeLa LgBit (Plk1-HiBit KI), the compounds were treated after being released after thymidine block, and the process was as follows. Thymidine (Sigma-Aldrich Cat. No. T9250-5G) was completely dissolved in ddH2O and used in the experiment. For thymidine block, the products were treated with 2 mM of thymidine and then incubated for 24 hours. For release and chemical treatment, the medium was suctioned and washed with 1×PBS. TrypLE™ was added and incubated in 37° C. CO2 incubator (Thermo Fisher Science, Cat. No. 4111) for 5 mins. Cells neutralized by adding complete media were counted through a counter. For each well of a 96-well culture plate (SPL), 3.3×10^4 cells and a total medium volume of 150 μl were seeded and incubated in a CO2 incubator.
Each cell line was incubated in a CO2 incubator for 18 hours, and Endurazine (Promega, Cat. No. N257B) was added to each well to make up 4% of the total volume. After adding compounds of Examples in a 96-well white plate (SPL) to a concentration of 300 nM, the wavelength of the plate reader (BMG Labtech, CLARIOstar Plus) was set to 470-480 nM, and then the luminescence was tracked in real time.
Background: HiBiT is a short tag that completes a luciferase, so light tracks the accessible tagged protein.

Bounds are passed on as bounds.

T1 sequence (P53350 whole entry): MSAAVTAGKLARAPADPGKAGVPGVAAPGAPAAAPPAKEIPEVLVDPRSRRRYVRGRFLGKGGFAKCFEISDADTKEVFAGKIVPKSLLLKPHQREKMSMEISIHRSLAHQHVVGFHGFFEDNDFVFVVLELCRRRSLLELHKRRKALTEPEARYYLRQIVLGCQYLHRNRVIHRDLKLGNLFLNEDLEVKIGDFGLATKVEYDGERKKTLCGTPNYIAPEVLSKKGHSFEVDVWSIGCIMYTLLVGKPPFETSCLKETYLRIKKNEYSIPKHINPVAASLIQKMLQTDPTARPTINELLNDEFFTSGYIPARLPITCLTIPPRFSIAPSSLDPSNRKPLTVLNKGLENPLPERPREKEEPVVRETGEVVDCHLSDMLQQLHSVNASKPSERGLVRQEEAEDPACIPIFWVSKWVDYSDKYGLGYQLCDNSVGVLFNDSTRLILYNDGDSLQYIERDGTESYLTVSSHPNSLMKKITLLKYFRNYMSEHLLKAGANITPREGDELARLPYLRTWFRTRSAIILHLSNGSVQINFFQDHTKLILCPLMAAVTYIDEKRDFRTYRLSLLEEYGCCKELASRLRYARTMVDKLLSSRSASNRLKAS

In the case of `CC[C@@H]1C(=O)N(C)c2cnc(Nc3ccc(C(=O)NN4CCC(C5CCN(CCc6ccc(C7CCC(=O)NC7=O)cc6)CC5)CC4)cc3OC)nc2N1C1CCCC1` (stereo partly drawn) [Compound 23, 4-(((R)-8-cyclopentyl-7-ethyl-5-methyl-6-oxo-5,6,7,8-tetrahydropteridin-2-yl)amino)-N-(1′-(4-(2,6-dioxopiperidin-3-yl)phenethyl)-[4,4′-bipiperidin]-1-yl)-3-methoxy benzamide], the IC50 (in test [1]; in the test on NCI-H69 (H69) cell line) was less than 20 nM each time. Moreover, the “Value (luminescence value, PLK1-HiBit)” value on PLK1 was 0.186.
For the molecule `CC[C@@H]1C(=O)N(C)c2cnc(Nc3ccc(C(=O)NC4CCN(C(=O)CCN5CCN(c6ccc(NC7CCC(=O)NC7=O)cc6)CC5)CC4)cc3OC)nc2N1C1CCCC1` (stereo partly drawn) [Compound 24, 4-(((R)-8-cyclopentyl-7-ethyl-5-methyl-6-oxo-5,6,7,8-tetrahydropteridin-2-yl)amino)-N-(1-(3-(4-(4-((2,6-dioxopiperidin-3-yl)amino)phenyl)piperazin-1-yl)propanoyl)piperidin-4-yl)-3-methoxybenzamide], the IC50 (in test [1]; in the test with NCI-H69 (H69) cell line) was less than 20 nM each time. Besides, the “Value (luminescence value, PLK1-HiBit)” value at PLK1 was found to be 0.206.
As for `CC[C@@H]1C(=O)N(C)c2cnc(Nc3ccc(C(=O)N[C@H]4CC[C@H](NCC5CCN(c6ccc(C7CCC(=O)NC7=O)nc6)CC5)CC4)cc3OC)nc2N1C1CCCC1` (stereo partly drawn) [Compound 25, 4-(((R)-8-cyclopentyl-7-ethyl-5-methyl-6-oxo-5,6,7,8-tetrahydropteridin-2-yl)amino)-N-((1r,4R)-4-(((1-(6-(2,6-dioxopiperidin-3-yl)pyridin-3-yl)piperidin-4-yl)methyl)amino)cyclohexyl)-3-methoxybenzamide], the IC50 (in test [1]; in the test on NCI-H69 (H69) cell line) was less than 20 nM throughout. At PLK1, the “Value (luminescence value, PLK1-HiBit)” value is recorded as 0.144.
In the case of `COc1cc(C(=O)NC2CCN(C(=O)CCN3CCN(c4ccc(NC5CCC(=O)NC5=O)cc4F)CC3)CC2)ccc1Nc1ncc2c(n1)N(C1CCCC1)CC(F)(F)C(=O)N2C` (stereo not drawn) [Compound 26, 4-((9-cyclopentyl-7,7-difluoro-5-methyl-6-oxo-6,7,8,9-tetrahydro-5H-pyrimido[4,5-b][1,4]diazepin-2-yl)amino)-N-(1-(3-(4-(4-((2,6-dioxopiperidin-3-yl)amino)-2-fluorophenyl)piperazin-1-yl)propanoyl)piperidin-4-yl)-3-methoxybenzamide], the IC50 (usually the midpoint of a concentration-inhibition curve) in test [1] was less than 20 nM; in the test with NCI-H69 (H69) cell line it was not above 50 nM. Further, at PLK1, the “Value (luminescence value, PLK1-HiBit)” value was found to be 0.269.
In the same order, the values of `COc1cc(C(=O)NCC2CCN(CC3CCN(c4ccc(C5CCC(=O)NC5=O)cc4)CC3)CC2)ccc1Nc1ncc2c(n1)N(C1CCCC1)CC(F)(F)C(=O)N2C` (stereo not drawn) [Compound 27, 4-((9-cyclopentyl-7,7-difluoro-5-methyl-6-oxo-6,7,8,9-tetrahydro-5H-pyrimido[4,5-b][1,4]diazepin-2-yl)amino)-N-((1-((1-(4-(2,6-dioxopiperidin-3-yl)phenyl)piperidin-4-yl)methyl)piperidin-4-yl)methyl)-3-methoxybenzamide] are not above 50 nM, not above 50 nM and 0.295.
As for `COc1cc(C(=O)NCC2CCN(CC3CCN(c4ccc(NC5CCC(=O)NC5=O)cc4)CC3)CC2)ccc1Nc1ncc2c(n1)N(C1CCCC1)CC(F)(F)C(=O)N2C` (stereo not drawn) [Compound 28, 4-((9-cyclopentyl-7,7-difluoro-5-methyl-6-oxo-6,7,8,9-tetrahydro-5H-pyrimido[4,5-b][1,4]diazepin-2-yl)amino)-N-((1-((1-(4-((2,6-dioxopiperidin-3-yl)amino)phenyl)piperidin-4-yl)methyl)piperidin-4-yl)methyl)-3-methoxybenzamide], the results for the IC50 (in test [1]; in the test on NCI-H69 (H69) cell line) were not above 50 nM and not above 100 nM, respectively. Besides, on PLK1, the “Value (luminescence value, PLK1-HiBit)” value was 0.259.
In the same order, the values of `COc1cc(C(=O)NC2CCN(C(=O)CCN3CCN(c4ccc(NC5CCC(=O)NC5=O)cc4)CC3)CC2)ccc1Nc1ncc2c(n1)N(C1CCCC1)CC1(CC1)C(=O)N2C` (stereo not drawn) [Compound 29, 4-((9′-cyclopentyl-5′-methyl-6′-oxo-5′,6′,8′,9′-tetrahydrospiro[cyclopropane-1,7′-pyrimido[4,5-b][1,4]diazepin]-2′-yl)amino)-N-(1-(3-(4-(4-((2,6-dioxopiperidin-3-yl)amino)phenyl)piperazin-1-yl)propanoyl)piperidin-4-yl)-3-methoxybenzamide] are not above 50 nM, not above 100 nM and 0.267.
As for `COc1cc(C(=O)NC2CCC(NCC3CCN(c4ccc(C5CCC(=O)NC5=O)cc4F)CC3)CC2)ccc1Nc1ncc2c(n1)N(C1CCCC1)CC(F)(F)C(=O)N2C` (stereo not drawn) [Compound 30, 4-((9-cyclopentyl-7,7-difluoro-5-methyl-6-oxo-6,7,8,9-tetrahydro-5H-pyrimido[4,5-b][1,4]diazepin-2-yl)amino)-N-((1r,4r)-4-(((1-(4-(2,6-dioxopiperidin-3-yl)-2-fluorophenyl)piperidin-4-yl)methyl)amino)cyclohexyl)-3-methoxybenzamide], the IC50 (in test [1]; in the test with NCI-H69 (H69) cell line) was not above 50 nM in each case. Further, on PLK1, the “Value (luminescence value, PLK1-HiBit)” value is on record as 0.250.
As to `COc1cc(C(=O)NN2CCC(C(N)CN3CCN(c4ccc(C5CCC(=O)NC5=O)cc4F)CC3)CC2)ccc1Nc1ncc2c(n1)N(C(C)C)CC(F)(F)C(=O)N2C` (stereo not drawn) [Compound 31, N-(4-(1-amino-2-(4-(4-(2,6-dioxopiperidin-3-yl)-2-fluorophenyl)piperazin-1-yl)ethyl)piperidin-1-yl)-4-((7,7-difluoro-9-isopropyl-5-methyl-6-oxo-6,7,8,9-tetrahydro-5H-pyrimido[4,5-b][1,4]diazepin-2-yl)amino)-3-methoxybenzamide], the IC50 (in test [1]; with NCI-H69 (H69) cell line) was not above 50 nM throughout. Also, the “Value (luminescence value, PLK1-HiBit)” value on PLK1 is on record as 0.241.

Source of the values: patent US20260199367A1, “PLK1 DEGRADATION INDUCING COMPOUNDS WITH INCREASED RIGIDITY” (UPPTHERA, INC., priority 2022, published 2026).
